From patent US20110039779A1, “IGF-1R BINDING PROTEINS AND ANTAGONISTS” (priority 2007, published 2011)
“And” between values parts separate entries of the source, which are not always exact repeats. Equal values may be shown once. Read-outs that look alike come from different tables or passages of the source. Each block holds one molecule with its values, some of them ahead of it.

Key:
[1] = test system: SW480 cells; format: cell-based
Protocol: For cell growth/density studies, a mitochondrial activity assay was used, as exemplified by the following. Cells (SW480, MCF-7S8) were propagated in complete medium (DME: F12, 10% FCS (SW 480) or 5% FCS (MCF-7S8, P/S)), trypsinized, and seeded in 96 well plates as 10,000 cells/well in medium with 0.5% FCS. All wells in the periphery were omitted and only filled with medium. […] All treatments are made in triplicates. […] Treatment was continued for 48 hours (SW480 cells) or 72 hours (MCF-7S8 cells) before quantification of the cell density. Media was exchanged each day. Media and peptides were diluted in DMSO. When measuring cell density, the volume of each well was adjusted to […] Pre-diluted WST-1 (1 ml+1.5 ml DME:F12) was added as 25 μL to each well including background samples. Three wells with media only served as background controls. The cells were incubated for 90 min protected against light in an incubator.

[2] = target: T1, purified HIGF-1R (Homo sapiens, UniProt P08069); experiment: IGF-1R activation kinase assay; format: biochemical; details: FIG. 2
T1 construct: HIGF-1R was purified from a cell culture of BHK cells stably transfected with IGF-1R cDNA; made in house; host or cells: BHK cells stably transfected with IGF-1R cDNA
T1 sequence (P08069 31-736 limits assumed): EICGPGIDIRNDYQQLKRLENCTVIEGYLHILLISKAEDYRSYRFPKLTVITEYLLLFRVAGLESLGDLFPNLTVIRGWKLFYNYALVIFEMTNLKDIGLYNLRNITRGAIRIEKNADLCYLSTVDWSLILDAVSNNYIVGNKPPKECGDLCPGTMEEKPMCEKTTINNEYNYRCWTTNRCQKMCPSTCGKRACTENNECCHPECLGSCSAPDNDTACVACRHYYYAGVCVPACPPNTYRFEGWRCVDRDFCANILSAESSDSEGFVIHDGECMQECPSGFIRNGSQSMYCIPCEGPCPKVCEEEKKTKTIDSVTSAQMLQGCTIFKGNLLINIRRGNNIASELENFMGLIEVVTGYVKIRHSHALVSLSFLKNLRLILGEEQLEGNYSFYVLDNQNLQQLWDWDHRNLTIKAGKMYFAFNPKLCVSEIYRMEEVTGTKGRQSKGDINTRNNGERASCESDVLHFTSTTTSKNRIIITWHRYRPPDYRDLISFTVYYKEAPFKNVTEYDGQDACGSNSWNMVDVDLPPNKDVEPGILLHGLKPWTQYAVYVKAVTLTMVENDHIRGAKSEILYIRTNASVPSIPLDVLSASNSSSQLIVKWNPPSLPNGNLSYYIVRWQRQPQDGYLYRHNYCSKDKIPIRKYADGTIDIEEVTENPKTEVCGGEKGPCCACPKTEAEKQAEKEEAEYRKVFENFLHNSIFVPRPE
T1 sequence (P08069 741-1367 limits assumed): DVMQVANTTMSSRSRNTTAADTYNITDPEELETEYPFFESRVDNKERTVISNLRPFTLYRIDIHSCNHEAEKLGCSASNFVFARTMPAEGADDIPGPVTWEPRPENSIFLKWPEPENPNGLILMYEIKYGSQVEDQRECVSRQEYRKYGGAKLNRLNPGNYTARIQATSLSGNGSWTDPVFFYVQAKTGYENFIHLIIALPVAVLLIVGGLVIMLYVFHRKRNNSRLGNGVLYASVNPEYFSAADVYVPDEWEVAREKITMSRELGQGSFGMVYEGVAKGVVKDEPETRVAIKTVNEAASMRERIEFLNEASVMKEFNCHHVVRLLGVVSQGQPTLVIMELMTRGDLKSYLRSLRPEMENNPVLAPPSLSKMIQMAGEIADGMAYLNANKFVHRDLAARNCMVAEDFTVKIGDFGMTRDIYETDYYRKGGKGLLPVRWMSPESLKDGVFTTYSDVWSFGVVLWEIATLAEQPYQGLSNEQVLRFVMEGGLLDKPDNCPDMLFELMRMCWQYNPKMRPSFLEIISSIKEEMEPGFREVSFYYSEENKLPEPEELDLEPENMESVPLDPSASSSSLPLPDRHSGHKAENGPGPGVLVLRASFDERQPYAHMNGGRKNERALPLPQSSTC
Protocol: For determining IGF-1R activation with test peptides, a kinase assay, generally using the following conditions was employed. A solution of each test peptide in kinase buffer (Hepes 100 mM (pH 8.0), MgCl2 8 mM, MnCl2 6 mM, Triton X100 0.1% v/v, BSA 0.2% w/v, 4 μg/ml IRS-1 peptide (Biotin-[…] in PBS+1 mg/ml)) was prepared. Samples were mixed in a microtiter plate in triplicate. 50 μl 2× kinase buffer was added into each well. […] Volume was adjusted to 88 μL, before addition of purified HIGF-1R (2 μl/well). Plates were shaken and incubated for 50 min. at room temperature (RT). DTT and 10 μl/well ATP were added and the wells incubated for 10 min. before stopping the reaction by adding 10 μl stop-buffer (50 mM EDTA (pH 8.0))/well and shaking. The samples were then transferred to streptavidin coated plates and incubated for 1 hour at RT. The coated plates were aspirated and washed 3 times with TBS-T. […] P-tyr Ab-PO (Phosphotyrosine-RC20:HRPO (1:1000) in TBS-T) was added and each plate was incubated for 30 min at RT. The plates were aspirated and washed 3 times with TBS-T. 100 μl TMB-One-substrate (Kem-En-Tec Diagnostics A/S—Denmark) (preheated to RT) was then added and the plates further incubated for approximately 20 min at RT. This reaction was stopped by adding 10 μl H2SO4 and the plates were read in an ELISA-reader at […] within 5-10 min. thereafter. […]

[3] = test system: MAPK42; experiment: downstream signaling in L6 cells: MAPK42; format: cell-based; details: 3 nM IGF-1, read-out: MAPK42, IC50 for down regulation of the stimulation to the basal level
Protocol: (§1) The tyrosine phosphorylation of IRS signaling (the 180 kDa band on a tyrosine phosphor Western blot) as well as activation of effectors MAPK 44 and 42 and PKB were analyzed by using antibodies specific for their active forms using methods substantially similar to those described in Example 14 of the '246 PCT application.
(§2) The effect of select peptides on downstream signaling (MAPK44, MAPK42, PKB/Akt, IRS-1, and IGF-1R) was also measured by studying the signaling in L6 cells predominantly expressing IGF-1R and very limited insulin receptors. […] The antagonistic effect of the peptides can be seen to affect all the downstream signaling from the IGF-1R.

[4] = test system: MAPK44; experiment: downstream signaling in L6 cells: MAPK44; format: cell-based; details: 3 nM IGF-1, read-out: MAPK44, IC50 for down regulation of the stimulation to the basal level
Protocol: as §1, §2

[5] = test system: IGF-IR; experiment: downstream signaling in L6 cells: IGF-IR; format: cell-based; details: 3 nM IGF-1, read-out: IGF-IR, IC50 for down regulation of the stimulation to the basal level
Protocol: as §1, §2

[6] = test system: IRS-1; experiment: downstream signaling: IRS-1 tyrosine phosphorylation; format: cell-based; details: L6 cells; 3 nM IGF-1; read-out: IRS-1, IC50 for down regulation of the stimulation to the basal level
Protocol: as §1, §2

[7] = target: MCF7 cells (Homo sapiens, UniProt P08069); experiment: antagonism assay in starved MCF7 cells, luminescence viability, 72 hrs; format: cell-based; details: Table 9
Sequence of MCF7 cells (P08069 31-736): as the sequence (P08069 31-736 limits assumed) above
Protocol: Additional binding and antagonism assays using candidate peptides were performed. […] Cell viability was determined by luminescence assay and IC50 was calculated using standard techniques.

[8] = read-out: IC50 in SW480 (M) in presence of IGF-1/alone: alone, second value of the cell: concentration needed to inhibit basal level in 0.5% FCS
[9] = read-out: IC50 in SW480 (M) in presence of IGF-1/alone: in presence of IGF-1, first value of the cell: concentration needed to blunt the effect of 10 nM IGF-1, cells in words only = effect as reported, 48 hours
[10] = read-out: IC50, inhibition of IGF-1 (10 nM)-induced proliferation of SW480 cells, experiment 13262-015
[11] = read-out: IC50, inhibition of IGF-1 (10 nM)-induced proliferation of SW480 cells, experiment 13262-016
[12] = first value of the cell: concentration needed to blunt the effect of 10 nM IGF-1, cells in words only = effect as reported, 48 hours

Molecule: VQDDCRGRPCGDADSFYEWFDQQAS [Peptide F263]
IC50 [1, 8]: > 1e-06 M
IC50 [1, 9]: > 1e-06 M

Molecule: EVDRDCQARPCGDAANFYDWFGQQGTE [Peptide F269]
IC50 [1, 8]: > 1e-05 M
IC50 [1, 9]: 5e-07 M

Molecule: SFYSCLESLVNGGAERSEGOWEGCR [Peptide F113]
IC50 [1, 10]: > 1e-05 M
IC50 [1, 11]: > 1e-05 M

IC50 [1, 10]: > 1e-05 M
IC50 [1, 11]: > 1e-05 M
Molecule: Ac-SFYSCLESLVQGPAEKSRGQWEGCRX [Peptide F369]

Molecule: SFYSCLESLVTGPAEKSRGQWEGCRK [Peptide F292]
IC50 [1, 8]: 1e-06 M
IC50 [1, 9]: 1e-07 M

Molecule: EGRVDDAFYENFERQLGE [Peptide F213]
IC50 in SW480 (M) in presence of IGF-1/alone: in presence of IGF-1 [1, 12]: No effect
IC50 [1, 9]: 2e-06 M

Molecule: EFLTRLLERLGLSWERGEAGGPYAQAE [Peptide F175]
IC50 in SW480 (M) in presence of IGF-1/alone: in presence of IGF-1 [1, 12]: No effect

Molecule: GSLDESFYRWFERQLEGGSGGSGLEQERAGTWCENSGRGCLH [Peptide F156]
IC50 in SW480 (M) in presence of IGF-1/alone: in presence of IGF-1 [1, 12]: No effect

Molecule: EERATPRWRGYEWFDAQVERE [Peptide F211]
IC50 in SW480 (M) in presence of IGF-1/alone: in presence of IGF-1 [1, 12]: No effect

Molecule: EGLLFCKQLFTLAGLQPEAGCVSSSRE [Peptide F165]
IC50 in SW480 (M) in presence of IGF-1/alone: in presence of IGF-1 [1, 12]: No effect

Molecule: Ac-VEGROLFYDLLROLLAMRRNG [Peptide F235]
IC50 in SW480 (M) in presence of IGF-1/alone: in presence of IGF-1 [1, 12]: No effect
inhibition of IGF-1R kinase activation by IGF-1 [2]: completely inhibit

Molecule: GVRAMSFYDALVSVLGLGPSG [Peptide F157]
IC50 in SW480 (M) in presence of IGF-1/alone: in presence of IGF-1 [1, 12]: No effect

IC50 in SW480 (M) in presence of IGF-1/alone: in presence of IGF-1 [1, 12]: No effect
Molecule: ELSFACLLSQLSGVVLPDCLLGEDE [Peptide F201]

Molecule: GSLDESFYDWFERQLGKK-Lig [Peptide F118]
IC50 in SW480 (M) in presence of IGF-1/alone: in presence of IGF-1 [1, 12]: No effect

Molecule: FFYRCLSRLLGGOLGSRLGLSCIGD [Peptide F139]
IC50 in SW480 (M) in presence of IGF-1/alone: in presence of IGF-1 [1, 12]: Antagonistic

Molecule: SFYSCLESLVAGPAEKSRGQWEGCRK [Peptide F259]
IC50 [1, 9]: 2e-06 M
inhibition of IGF-1R kinase activation by IGF-1 [2]: completely inhibit

Molecule: EFGTGYGGDGGGYWSGYEWLAW [Peptide F207]
IC50 in SW480 (M) in presence of IGF-1/alone: in presence of IGF-1 [1, 12]: No effect
IC50 [1, 9]: 2e-06 M

Molecule: SFYSCLESLVKRPTERSRGQWVGCR [Peptide F320]
IC50 [3]: 1000 nM
IC50 in SW480 (M) in presence of IGF-1/alone: in presence of IGF-1 [1, 12]: No effect
IC50 [4]: 1000 nM
IC50 [5]: 2000 nM and > 1000 nM
IC50 [6]: > 2000 nM

Molecule: EISFRCQLFVLAGMHPCPVDVGGEGFE [Peptide F170]
IC50 in SW480 (M) in presence of IGF-1/alone: in presence of IGF-1 [1, 12]: No effect

Molecule: SFYSCLESLVNGPAEKSRGQWDGCR [Peptide F249]
IC50 [1, 8]: > 1e-05 M
IC50 [1, 9]: > 1e-05 M

Molecule: SFYSCLGSLLTGAPQPIRGAWDRCR [Peptide F144]
IC50 in SW480 (M) in presence of IGF-1/alone: in presence of IGF-1 [1, 12]: No effect

IC50 [1]: 5e-07 M
Molecule: CC[C@H](C)[C@H](NC(=O)[C@H](CS)NC(=O)[C@H](CCCNC(=N)N)NC(=O)[C@H](CCCNC(=N)N)NC(=O)[C@H](CCCNC(=N)N)NC(=O)[C@H](Cc1c[nH]c2ccccc12)NC(=O)CNC(=O)[C@H](Cc1ccccc1)NC(=O)[C@H](CO)NC(=O)[C@@H]1CCCN1C(=O)[C@@H](NC(=O)CNC(=O)[C@H](CC(C)C)NC(=O)[C@H](CO)NC(=O)[C@H](CC(C)C)NC(=O)[C@H](CC(=O)O)NC(=O)[C@H](CC(C)C)NC(=O)[C@H](CC(C)C)NC(=O)[C@H](CS)NC(=O)CNC(=O)[C@H](Cc1ccc(O)cc1)NC(=O)[C@H](Cc1ccccc1)NC(=O)[C@@H]1CCC(=O)N1)C(C)C)C(=O)N[C@H](C(=O)N[C@@H](C)C(=O)O)[C@@H](C)O [Peptide F138P]
inhibition of basal growth of SW480, doses ([1]; without IGF-1): > 100 nM

Molecule: EVTSAGQWEGYEWFLGALHAE [Peptide F210]
IC50 in SW480 (M) in presence of IGF-1/alone: in presence of IGF-1 [1, 12]: No effect

IC50 ([1]; read-out: IC50, inhibition of IGF-1 (10 nM)-induced proliferation of SW480 cells, experiment 13262-027): 1e-06 M
IC50 ([1]; read-out: IC50, inhibition of IGF-1 (10 nM)-induced proliferation of SW480 cells, experiment 13262-029): 1e-06 M
Molecule: QFYGCLLDLSLGVPSPGWRRRCITA [Peptide F393]

Molecule: SAAQLFFQESFYDWFLRQVAESSQPN [Peptide F162]
IC50 in SW480 (M) in presence of IGF-1/alone: in presence of IGF-1 [1, 12]: No effect

Molecule: EIQRDCQGRPCGDAANFYDWFVQQDSE [Peptide F268]
IC50 in SW480 (M) in presence of IGF-1/alone: in presence of IGF-1 [1, 12]: No effect

Molecule: EFSGFCMGLERLSOVSLGYCGAGOGGE [Peptide F169]
IC50 [1, 9]: 2e-06 M

Molecule: RQWDCRGRPCGDAESFYEWFDQQRS [Peptide F264]
IC50 [1, 8]: > 1e-05 M
IC50 [1, 9]: > 1e-05 M

Molecule: SFYDCLLDLSIGGPSSDWRRRCITA [Peptide F441]
Activity [7]: Antagonist

Molecule: ELQGFCELLATVTGVTGLGCLDYQPIE [Peptide F202]
IC50 in SW480 (M) in presence of IGF-1/alone: in presence of IGF-1 [1, 12]: No effect
IC50 [1, 9]: > 1e-05 M
IC50 in SW480 (M) in presence of IGF-1/alone: alone ([1]; second value of the cell: concentration needed to inhibit basal level in 0.5% FCS): no effect

Molecule: ENRSGELWEGYGWFNMQVRGE [Peptide F212]
IC50 in SW480 (M) in presence of IGF-1/alone: in presence of IGF-1 [1, 12]: No effect

Molecule: DMGDVECEDPFYDWFACQVRDTEFDE [Peptide F115]
IC50 in SW480 (M) in presence of IGF-1/alone: in presence of IGF-1 [1, 12]: No effect

Molecule: SACQFDCHENFYDWFAROVSGOAAYG [Peptide F161]
IC50 in SW480 (M) in presence of IGF-1/alone: in presence of IGF-1 [1, 12]: No effect

Molecule: NFYGCLLDLSLGVPSFGWRRRCITA [Peptide F408]
Activity [7]: Antagonist

Molecule: GIISQSCPESFYDWFAGQVSDPWWCW-Lig [Peptide F116]
IC50 in SW480 (M) in presence of IGF-1/alone: in presence of IGF-1 [1, 12]: No effect

Molecule: Ac-VGRASGPPENFYDWPGRQLSLQSGEQRR [Peptide F287]
IC50 in SW480 (M) in presence of IGF-1/alone: in presence of IGF-1 [1, 12]: No effect

Molecule: VEGRGLFYDLLRQLLARRQNG [Peptide F158]
IC50 in SW480 (M) in presence of IGF-1/alone: in presence of IGF-1 [1, 12]: No effect

Molecule: Ac-ESDVWAQPQRRNDWPGYHWLSR [Peptide F288]
IC50 in SW480 (M) in presence of IGF-1/alone: in presence of IGF-1 [1, 12]: No effect
